The target in one data set is T1, PDE2A (NM002599) (Homo sapiens, UniProt O00408).
T1 construct: made in house; host or cells: baculovirus / SF21 insect cells
Kind of data set: Inhibition of recombinant PDE2A (expressed in baculovirus/SF21-cells). As to conditions: recombinant PDE2A, 0.5 μM [3H]-cAMP, 1000 nM cGMP, 37° C., 30 minutes, SPA; read-out: PDE2A IC50. It counts as biochemical. In a few lines:
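Membrane fraction from SF21 cells, assayed in 50 mM Tris-HCl/5 mM MgCl2 (pH 7.4) with 0.5 μM [3H]-cAMP plus 1000 nM cGMP as stimulator; non-specific activity was measured without cGMP. Reaction ran 30 min at 37° C, was stopped with SPA beads and read by scintillation counting. IC50 came from a Hill-plot 2-parameter model.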

The next data set addresses T2, PDE10A1 (AB 020593) (Homo sapiens, UniProt Q9Y233).
T2 construct: made in house; host or cells: baculovirus / SF21 insect cells (gene synthesized by Entelechon GmbH)
In words: Inhibition of recombinant PDE10A (baculovirus/SF21 system). It counts as biochemical. As to conditions: recombinant cytosolic PDE10A, 0.1 μM [3H]-cAMP, 37° C., 30 minutes, SPA; read-out: PDE10A IC50. In a few lines:
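Cytosolic PDE10A1 expressed in SF21 cells via baculovirus, incubated with 0.1 μM [3H]-cAMP in 50 mM Tris-HCl/5 mM MgCl2, pH 7.4, 30 min at 37 °C. SPA-bead scintillation read-out, with enzyme-free wells as background. IC50 from Hill plot, 2-parameter model.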

T2 sequence (Q9Y233 other isoform, or with tags, fused parts or gaps): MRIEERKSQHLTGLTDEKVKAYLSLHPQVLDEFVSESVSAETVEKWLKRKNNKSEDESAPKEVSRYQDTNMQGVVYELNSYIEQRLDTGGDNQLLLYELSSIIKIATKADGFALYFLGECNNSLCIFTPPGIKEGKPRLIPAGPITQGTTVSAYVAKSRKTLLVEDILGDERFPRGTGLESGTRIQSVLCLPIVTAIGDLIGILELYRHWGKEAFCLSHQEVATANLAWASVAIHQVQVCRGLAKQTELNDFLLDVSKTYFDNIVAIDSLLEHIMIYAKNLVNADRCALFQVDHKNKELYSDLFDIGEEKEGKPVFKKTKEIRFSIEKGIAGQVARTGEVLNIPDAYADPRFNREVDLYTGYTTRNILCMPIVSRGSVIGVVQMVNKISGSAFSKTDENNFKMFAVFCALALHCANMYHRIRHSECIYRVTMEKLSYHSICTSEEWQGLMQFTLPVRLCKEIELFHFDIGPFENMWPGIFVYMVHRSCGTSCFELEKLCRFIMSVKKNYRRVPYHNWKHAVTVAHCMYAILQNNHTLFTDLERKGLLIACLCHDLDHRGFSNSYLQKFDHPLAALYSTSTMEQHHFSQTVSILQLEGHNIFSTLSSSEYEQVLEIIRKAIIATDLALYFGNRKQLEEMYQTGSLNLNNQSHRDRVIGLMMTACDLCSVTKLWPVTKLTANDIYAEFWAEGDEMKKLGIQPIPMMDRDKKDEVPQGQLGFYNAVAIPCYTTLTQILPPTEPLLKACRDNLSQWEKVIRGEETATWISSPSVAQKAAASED
T1 sequence (O00408 whole entry): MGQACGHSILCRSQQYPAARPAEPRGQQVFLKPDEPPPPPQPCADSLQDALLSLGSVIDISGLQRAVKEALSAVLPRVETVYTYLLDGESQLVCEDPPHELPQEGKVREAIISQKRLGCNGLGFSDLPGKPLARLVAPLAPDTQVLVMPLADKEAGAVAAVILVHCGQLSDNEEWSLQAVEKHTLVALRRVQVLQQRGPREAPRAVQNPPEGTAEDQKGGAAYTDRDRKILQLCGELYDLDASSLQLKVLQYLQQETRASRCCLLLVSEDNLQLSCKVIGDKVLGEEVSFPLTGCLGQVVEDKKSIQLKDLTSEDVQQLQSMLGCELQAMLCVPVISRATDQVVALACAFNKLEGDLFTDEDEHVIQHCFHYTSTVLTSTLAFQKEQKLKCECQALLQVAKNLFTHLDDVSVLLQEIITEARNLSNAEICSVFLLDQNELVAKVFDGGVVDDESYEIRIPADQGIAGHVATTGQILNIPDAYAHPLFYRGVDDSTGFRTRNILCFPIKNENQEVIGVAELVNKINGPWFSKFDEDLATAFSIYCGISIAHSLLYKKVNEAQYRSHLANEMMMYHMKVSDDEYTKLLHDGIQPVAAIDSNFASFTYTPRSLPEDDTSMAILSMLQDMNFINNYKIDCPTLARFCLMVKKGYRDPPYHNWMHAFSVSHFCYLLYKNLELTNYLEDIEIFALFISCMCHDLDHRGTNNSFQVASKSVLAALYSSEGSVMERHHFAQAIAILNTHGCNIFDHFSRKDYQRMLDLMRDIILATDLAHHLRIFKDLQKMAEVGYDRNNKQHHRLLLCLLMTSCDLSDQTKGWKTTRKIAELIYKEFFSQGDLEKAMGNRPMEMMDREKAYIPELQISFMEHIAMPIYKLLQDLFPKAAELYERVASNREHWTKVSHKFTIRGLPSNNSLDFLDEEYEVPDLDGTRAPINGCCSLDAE

For orientation: IC50 means the concentration needed to halve the response being measured. What is called melting point is the temperature, or range, at which the solid turns liquid. As for `COc1ccc2nnc3cnc(C(C)C)n3c2n1` [Example 7, 1-isopropyl-8-methoxy-imidazo[5,1-c]-pyrido[2,3-e][1,2,4]triazine], the melting point fell in the range of 159 to 162 °C. Further, the half-maximal inhibitory concentration (IC50) on PDE2A (NM002599) amounted to 2980 nM. For the same molecule, the 50% inhibitory concentration (IC50) at PDE10A1 (AB 020593) was determined as 2890 nM.

The molecule `COc1ccc2nnc3cnc(-c4ccccc4Cl)n3c2n1` [Example 8, 1-(2-chlorophenyl)-8-methoxy-imidazo[5,1-c]pyrido[2,3-e][1,2,4]triazine] displayed a melting point of 190 to 193 °C. Further, the concentration for half-maximal inhibition (IC50) at PDE2A (NM002599) turned out to be 96.5 nM. For the same molecule, at PDE10A1 (AB 020593), the IC50 turned out to be 454 nM.

Take `COc1ccc2nnc3c(C)nc(-c4ccccn4)n3c2n1` [Example 10, 8-methoxy-3-methyl-1-(2-pyridyl)-imidazo[5,1-c]-pyrido[2,3-e][1,2,4]triazine]: the melting point is 216 to 220 °C. In addition, the IC50 at PDE2A (NM002599) is 2200 nM. The concentration for half-maximal inhibition (IC50) on PDE10A1 (AB 020593) was determined as 3810 nM.

Turning to `COc1ccc2nnc3c(C)nc(C4CCCCC4)n3c2n1` [Example 11, 8-methoxy-3-methyl-1-(cyclohexyl)-imidazo[5,1-c]-pyrido[2,3-e][1,2,4]triazine], the melting point lay in the range of 174 to 177 °C. Besides, on PDE2A (NM002599), the half-maximal inhibitory concentration (IC50) came out at 56.3 nM. Further, the IC50 at PDE10A1 (AB 020593) was 41.4 nM.

On to `CCC(C)c1nc(C)c2nnc3ccc(OC)nc3n12` (stereo not drawn) [Example 12, 8-methoxy-3-methyl-1-(sec-butyl)-imidazo[5,1-c]-pyrido[2,3-e][1,2,4]triazine], for which the melting point was 157 to 159 °C. In addition, at PDE2A (NM002599), the IC50 came to 136 nM. For the same molecule, at PDE10A1 (AB 020593), the IC50 came to 94.8 nM.

For `COc1ccc2nnc3c(C)nc(CC(C)C)n3c2n1` [Example 13, 8-methoxy-3-methyl-1-(iso-butyl)-imidazo[5,1-c]-pyrido[2,3-e][1,2,4]triazine], the melting point was in the range of 143.5 to 145 °C. Also, the IC50 on PDE2A (NM002599) was determined as 30.3 nM. The IC50 on PDE10A1 (AB 020593) was 12.9 nM.

As to `Cc1nc(-c2cc(Cl)ccc2Cl)n2c1nnc1ccc(Cl)nc12` [Example 118, 8-chloro-1-(2,5-dichloro-phenyl)-3-methyl-imidazo[5,1-c]pyrido[2,3-e][1,2,4]triazine], the melting point was 151 to 154 °C. Moreover, the IC50 at PDE2A (NM002599) turned out to be 11.8 nM. For the same molecule, the IC50 on PDE10A1 (AB 020593) is 228 nM.

`Cc1cn(-c2ccc3nnc4c(C)nc(-c5cc(Cl)ccc5Cl)n4c3n2)c(-c2cc(Cl)ccc2Cl)n1` [Example 119, 1-(2,5-dichloro-phenyl)-8-[2-(2,5-dichloro-phenyl)-4-methyl-imidazol-1-yl]-3-methyl-imidazo[5,1-c]pyrido[2,3-e][1,2,4]triazine] came in with a melting point of 130 °C. Besides, the half-maximal inhibitory concentration (IC50) at PDE2A (NM002599) is 41 nM. The IC50 on PDE10A1 (AB 020593) amounted to 240 nM.

Molecule `COc1ccc2nnc3c(C4CC4)nc(-c4cccc(Cl)c4)n3c2n1` [Example 121, 1-(3-Chloro-phenyl)-3-cyclopropyl-8-methoxy-imidazo[5,1-c]pyrido[2,3-e][1,2,4]triazine] had a melting point of 155 °C. Moreover, at PDE2A (NM002599), the 50% inhibitory concentration (IC50) is 136 nM. Moreover, the IC50 on PDE10A1 (AB 020593) is over 500 nM.

Turning to `COc1ccc2nnc3c(C4CC4)nc(-c4ccccn4)n3c2n1` [Example 122, 3-Cyclopropyl-8-methoxy-1-pyridin-2-yl-imidazo[5,1-c]pyrido[2,3-e][1,2,4]triazine], the melting point lay within 162 to 164 °C. Moreover, on PDE2A (NM002599), the IC50 is 5190 nM. Besides, the IC50 on PDE10A1 (AB 020593) worked out at 8100 nM.

As for `Cc1nc(-c2ccccc2Cl)n2c1nnc1ccc(N3CCOCC3)nc12` [Example 123, 1-(2-Chloro-phenyl)-3-methyl-8-morpholin-4-yl-imidazo[5,1-c]pyrido[2,3-e][1,2,4]triazine], the melting point lay in the range of 251 to 254 °C. Besides, on PDE2A (NM002599), the 50% inhibitory concentration (IC50) is 5.13 nM. The IC50 at PDE10A1 (AB 020593) worked out at 15.7 nM.

For the molecule `COc1ccc2nnc3c(-c4ccccc4)ncn3c2n1` [Example 124, 8-Methoxy-3-phenyl-imidazo[5,1-c]pyrido[2,3-e][1,2,4]triazine], the melting point was in the range of 225 to 227 °C. Also, at PDE2A (NM002599), the IC50 is over 500 nM. The IC50 on PDE10A1 (AB 020593) is over 500 nM.
